For assay [1], the system named is Alternaria solani. The assay is described as follows: Alternaria solani / tomato / leaf disc (early blight). The format is in vivo. Conditions: foliar, inoculated 2 days after application, vs untreated control. Here is the method: Example B1: Alternaria solani/Tomato/Leaf Disc (Early Blight) Tomato leaf disks cv. Baby are placed on agar in multiwell plates (24-well format) and sprayed with the formulated test compound diluted in water. The leaf disks are inoculated with a spore suspension of the fungus 2 days after application. The inoculated leaf disks are incubated at 23° C./21° C. (day/night) and 80% relative humidity under a light regime of 12 h/12 h (light/dark) in a climate cabinet and the activity of a compound is assessed as percent disease control compared to untreated when an appropriate level of disease damage appears on untreated check disk leaf disks (5-7 days after application).

For assay [2], the system named is Mycosphaerella arachidis. The assay is described as follows: Mycosphaerella arachidis (Cercospora arachidicola) / liquid culture (early leaf spot). It counts as cell-based. Conditions: 96 h, photometrically 4-5 days after application, read-out: control of Mycosphaerella arachidis. As for the experimental part: Example B11: Mycosphaerella arachidis (Cercospora arachidicola)/Liquid Culture (Early Leaf Spot) Conidia of the fungus from cryogenic storage are directly mixed into a nutrient broth (potato dextrose broth). After placing a DMSO solution of test compound into a microtiter plate (96-well format), the nutrient broth containing the fungal spores is added. The test plates are incubated at 24° C. and the inhibition of growth is determined photometrically 4-5 days after application.

Assay [3] relates to Glomerella lagenarium. The assay is described as follows: Glomerella lagenarium (Colletotrichum lagenarium) / liquid culture (anthracnose). The format is cell-based. Conditions: Colletotrichum orbiculare, 72 h, photometrically 3-4 days after application, read-out: control of Glomerella lagenarium. As for the experimental part:
Example B5: Glomerella Lagenarium (Colletotrichum Lagenarium)/Liquid Culture (Anthracnose) Conidia of the fungus from cryogenic storage are directly mixed into a nutrient broth (potato dextrose broth). After placing a DMSO solution of test compound into a microtiter plate (96-well format), the nutrient broth containing the fungal spores is added. The test plates are incubated at 24° C. and the inhibition of growth is measured photometrically 3-4 days after application.

Assay [4] has as its system Mycosphaerella graminicola. The assay is described as follows: Mycosphaerella graminicola (Septoria tritici) / liquid culture (Septoria blotch). The format is cell-based. The conditions noted are these: Zymoseptoria tritici, 96 h, photometrically 4-5 days after application, read-out: control of Mycosphaerella graminicola. A digest of the protocol: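 Growth inhibition measured by photometry 4-5 days post application, at 24° C incubation. Test compound supplied as DMSO solution; fungal conidia from cryostorage suspended directly in potato dextrose broth as inoculum.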

For assay [5], the system named is Monographella nivalis. As to the kind of experiment: Monographella nivalis (Microdochium nivale) / liquid culture (foot rot cereals). It counts as cell-based. Conditions: 96 h, photometrically 4-5 days after application, read-out: control of Monographella nivalis. Here is the method:
Example B10: Monographella nivalis (Microdochium nivale)/Liquid Culture (Foot Rot Cereals) Conidia of the fungus from cryogenic storage are directly mixed into a nutrient broth (potato dextrose broth). After placing a DMSO solution of test compound into a microtiter plate (96-well format), the nutrient broth containing the fungal spores is added. The test plates are incubated at 24° C. and the inhibition of growth is determined photometrically 4-5 days after application.

Experimental findings from patent publication US20250325534A1, “MICROBIOCIDAL TETRAHYDROISOQUINOLINE DERIVATIVES” (SYNGENTA CROP PROTECTION AG, priority 2021, published 2025) are described below.

A word on the pest or weed control: it is how far the test organism was held down. The low end stands for a weak effect, the high end for a strong effect. Regarding `Cn1ncc(C2CN(C(=O)c3cc(-c4ccc(F)cc4F)on3)Cc3ccccc32)c1Cl` (stereo not shown) [Compound P-38, [4-(5-chloro-1-methyl-pyrazol-4-yl)-3,4-dihydro-1H-isoquinolin-2-yl]-[5-(2,4-difluorophenyl)isoxazol-3-yl]methanone], in assay [1], the pest or weed control at 200 ppm is ≥ 80%.

With `COC(=O)C1c2ccccc2C(c2cnn(C)c2)CN1C(=O)c1cc(-c2ccc(F)cc2F)on1` (stereo not shown) [Compound P-42, methyl 2-[5-(2,4-difluorophenyl)isoxazole-3-carbonyl]-4-(1-methylpyrazol-4-yl)-3,4-dihydro-1H-isoquinoline-1-carboxylate], the pest or weed control at 200 ppm in assay [1] is ≥ 80%.

For the compound `COc1ccc2c(c1)CN(C(=O)c1cc(-c3ccccc3)on1)CC2c1cnn(C)c1` (stereo not shown) [Compound P-50, [7-methoxy-4-(1-methylpyrazol-4-yl)-3,4-dihydro-1H-isoquinolin-2-yl]-(5-phenylisoxazol-3-yl)methanone], the inhibition of growth at 20 ppm in assay [2], in assay [3] and in assay [4] was ≥ 80% in each case.

`Cn1ncc(C2CN(C(=O)c3cc(-c4ccc(F)cc4F)on3)Cc3ccccc32)c1F` (stereo not shown) [Compound P-52, [5-(2,4-difluorophenyl)isoxazol-3-yl]-[4-(5-fluoro-1-methyl-pyrazol-4-yl)-3,4-dihydro-1H-isoquinolin-2-yl]methanone]: the pest or weed control at 200 ppm in assay [1] is ≥ 80%.

For the compound `Cn1cc(C2CN(C(=O)c3nnc(-c4ccc(F)cc4F)o3)Cc3ccccc32)cn1` (stereo not shown) [Compound P-55, [5-(2,4-difluorophenyl)-1,3,4-oxadiazol-2-yl]-[4-(1-methylpyrazol-4-yl)-3,4-dihydro-1H-isoquinolin-2-yl]methanone], the pest or weed control at 200 ppm in assay [1] was ≥ 80%. In assay [4], the inhibition of growth at 20 ppm was ≥ 80%.

As to `Cn1cc(C2CN(C(=O)c3nnc(-c4ccc(F)cc4)o3)Cc3ccccc32)cn1` (stereo not shown) [Compound P-56, [5-(4-fluorophenyl)-1,3,4-oxadiazol-2-yl]-[4-(1-methylpyrazol-4-yl)-3,4-dihydro-1H-isoquinolin-2-yl]methanone], in assay [1], the pest or weed control at 200 ppm was ≥ 80%.

In the case of `Cn1cc(C2c3ccccc3CN(C(=O)c3cc(-c4ccc(F)cc4F)on3)C2(C)C)cn1` (stereo not shown) [Compound P-105, [5-(2,4-difluorophenyl)isoxazol-3-yl]-[3,3-dimethyl-4-(1-methylpyrazol-4-yl)-1,4-dihydroisoquinolin-2-yl]methanone], the pest or weed control at 200 ppm in assay [1] was ≥ 80%.

Take `Cc1nn(C)c(C)c1C1CN(C(=O)c2cc(-c3ccc(F)cc3F)sn2)Cc2ccccc21` (stereo not shown) [Compound P-115, [5-(2,4-difluorophenyl)isothiazol-3-yl]-[4-(1,3,5-trimethylpyrazol-4-yl)-3,4-dihydro-1H-isoquinolin-2-yl]methanone]: in assay [1], the pest or weed control at 200 ppm was ≥ 80%. For the same compound, the inhibition of growth at 20 ppm in assay [4] was ≥ 80%.

As for `Cc1nn(C)cc1C1CN(C(=O)c2cc(-c3ccc(F)cc3F)on2)Cc2ccccc21` (stereo not shown) [Compound P-121, [5-(2,4-difluorophenyl)isoxazol-3-yl]-[4-(1,3-dimethylpyrazol-4-yl)-3,4-dihydro-1H-isoquinolin-2-yl]methanone], the inhibition of growth at 20 ppm in assay [2], in assay [5], in assay [3] and in assay [4] was ≥ 80% each time.

As to `Cc1nn(C)c(C)c1C1CN(C(=O)c2cc(-c3ccc(F)cc3F)on2)Cc2ncccc21` (stereo not shown) [Compound P-124, [5-(2,4-difluorophenyl)isoxazol-3-yl]-[5-(1,3,5-trimethylpyrazol-4-yl)-6,8-dihydro-5H-1,7-naphthyridin-7-yl]methanone], the pest or weed control at 200 ppm in assay [1] is ≥ 80%.

Take `Cn1cc(C2CN(C(=O)c3cc(-c4ccccc4)on3)Cc3cc(F)ccc32)cn1` (stereo not shown) [Compound P-138, [7-fluoro-4-(1-methylpyrazol-4-yl)-3,4-dihydro-1H-isoquinolin-2-yl]-(5-phenylisoxazol-3-yl)methanone]: the inhibition of growth at 20 ppm in assay [2], in assay [5], in assay [3] and in assay [4] was ≥ 80% throughout.

Consider `Cn1cc(C2CN(C(=O)c3cc(-c4ccccc4)on3)Cc3ccc(F)cc32)cn1` (stereo not shown) [Compound P-139, [6-fluoro-4-(1-methylpyrazol-4-yl)-3,4-dihydro-1H-isoquinolin-2-yl]-(5-phenylisoxazol-3-yl)methanone], for which the inhibition of growth at 20 ppm in assay [2], in assay [3] and in assay [4] was ≥ 80% throughout.

Regarding `Cc1c(C2CN(C(=O)c3cc(-c4ccc(F)cc4F)on3)Cc3ccccc32)cnn1C` (stereo not shown) [Compound P-140, [5-(2,4-difluorophenyl)isoxazol-3-yl]-[4-(1,5-dimethylpyrazol-4-yl)-3,4-dihydro-1H-isoquinolin-2-yl]methanone], the pest or weed control at 200 ppm in assay [1] was ≥ 80%.

For the compound `Cn1cc(C2CN(C(=O)c3noc(-c4ccccc4)n3)Cc3ccccc32)cn1` (stereo not shown) [Compound P-146, [4-(1-methylpyrazol-4-yl)-3,4-dihydro-1H-isoquinolin-2-yl]-(5-phenyl-1,2,4-oxadiazol-3-yl)methanone], the pest or weed control at 200 ppm in assay [1] is ≥ 80%.

Regarding `Cn1cc(C2CN(C(=O)c3nnc(-c4ccccc4)o3)Cc3ccccc32)cn1` (stereo not shown) [Compound P-163, [4-(1-methylpyrazol-4-yl)-3,4-dihydro-1H-isoquinolin-2-yl]-(5-phenyl-1,3,4-oxadiazol-2-yl)methanone], the pest or weed control at 200 ppm in assay [1] is ≥ 80%.

With `Cn1cc(C2CN(C(=O)c3cc(-c4ccco4)on3)Cc3ccccc32)cn1` (stereo not shown) [Compound P-188, [5-(2-furyl)isoxazol-3-yl]-[4-(1-methylpyrazol-4-yl)-3,4-dihydro-1H-isoquinolin-2-yl]methanone], the inhibition of growth at 20 ppm in assay [2], in assay [3] and in assay [4] was ≥ 80% throughout.

As to `Cn1cc(C2CN(C(=O)c3cc(-c4cccc(Cl)c4)on3)Cc3ccccc32)cn1` (stereo not shown) [Compound P-190, [5-(3-chlorophenyl)-isoxazol-3-yl]-[4-(1-methylpyrazol-4-yl)-3,4-dihydro-1H-isoquinolin-2-yl]methanone], the inhibition of growth at 20 ppm in assay [5], in assay [3] and in assay [4] was ≥ 80% throughout.

For `Cn1cc(C2CN(C(=O)c3cc(-c4ccccc4)on3)Cc3ccccc32)cn1` (stereo not shown) [Compound P-205, [4-(1-methylpyrazol-4-yl)-3,4-dihydro-1H-isoquinolin-2-yl]-(5-phenylisoxazol-3-yl)methanone], the inhibition of growth at 20 ppm in assay [2], in assay [5], in assay [3] and in assay [4] was ≥ 80% throughout.

As for `Cn1cc(C2(C)CN(C(=O)c3nnc(-c4ccc(F)cc4F)s3)Cc3ccccc32)cn1` (stereo not shown) [Compound P-207, [5-(2,4-difluorophenyl)-1,3,4-thiadiazol-2-yl]-[4-methyl-4-(1-methylpyrazol-4-yl)-1,3-dihydroisoquinolin-2-yl]methanone], the pest or weed control at 200 ppm in assay [1] was ≥ 80%.

Consider `Cn1cc([C@]2(C)CN(C(=O)c3nnc(-c4ccc(F)cc4F)s3)Cc3ccccc32)cn1` [Compound P-208, [5-(2,4-difluorophenyl)-1,3,4-thiadiazol-2-yl]-[(4R)-4-methyl-4-(1-methylpyrazol-4-yl)-1,3-dihydroisoquinolin-2-yl]methanone], for which the pest or weed control at 200 ppm in assay [1] is ≥ 80%.

With `Cc1c(C2CN(C(=O)c3nnc(-c4ccc(F)cc4F)o3)Cc3ccccc32)cnn1C` (stereo not shown) [Compound P-225], the pest or weed control at 200 ppm in assay [1] is ≥ 80%.

In the case of `Cc1c(C2CN(C(=O)c3cc(-c4cccn4C)on3)Cc3ccccc32)cnn1C` (stereo not shown) [Compound P-231, [4-(1,5-dimethylpyrazol-4-yl)-3,4-dihydro-1H-isoquinolin-2-yl]-[5-(1-methylpyrrol-2-yl)isoxazol-3-yl]methanone], the inhibition of growth at 20 ppm in assay [2], in assay [3] and in assay [4] was ≥ 80% throughout.

Take `Cc1c(C2CN(C(=O)c3nnc(C4CCC4)s3)Cc3ccccc32)cnn1C` (stereo not shown) [Compound P-232, (5-cyclobutyl-1,3,4-thiadiazol-2-yl)-[4-(1,5-dimethylpyrazol-4-yl)-3,4-dihydro-1H-isoquinolin-2-yl]methanone]: the inhibition of growth at 20 ppm in assay [2], in assay [3] and in assay [4] was ≥ 80% each time.
